Reference: the NIST ThermoML archive (doi:10.1021/je025657+)
Values joined by “and” are separate entries in the source; they are usually repeats but may differ in a detail not shown here. Identical values can stand only once.

Settings: for vapor or sublimation pressure: Closed cell (Static) method

COC(F)(F)F [trifluoromethoxymethane]
Settings | mass density [kg/m3]
290 K, 4029.3 kPa, Liquid | 1136.09
290 K, 4505 kPa, Liquid | 1138.14
290 K, 4999.6 kPa, Liquid | 1140.25
290 K, 5546.1 kPa, Liquid | 1142.55
290 K, 6046.4 kPa, Liquid | 1144.61
290 K, 6496.3 kPa, Liquid | 1146.42
290 K, 6981.5 kPa, Liquid | 1148.28
300 K, 31.3 kPa, Gas | 1.25
300 K, 46.2 kPa, Gas | 1.89
300 K, 68 kPa, Gas | 2.77
300 K, 100.1 kPa, Gas | 4.12
300 K, 146.6 kPa, Gas | 6.12
300 K, 214 kPa, Gas | 9.08
300 K, 306.3 kPa, Gas | 13.34
300 K, 439.5 kPa, Gas | 19.94
300 K, 589.3 kPa, Gas | 28.11
300 K, 617 kPa, Liquid | 1086.54
300 K, 658.2 kPa, Liquid | 1086.45
300 K, 913.6 kPa, Liquid | 1088.34
300 K, 1058.4 kPa, Liquid | 1088.91
300 K, 1466.6 kPa, Liquid | 1091.63
300 K, 1522.9 kPa, Liquid | 1091.63
300 K, 1998.6 kPa, Liquid | 1094.68
300 K, 2016.1 kPa, Liquid | 1094.48
300 K, 2526.4 kPa, Liquid | 1097.64
300 K, 2545.5 kPa, Liquid | 1097.41
300 K, 3023.5 kPa, Liquid | 1100.35
300 K, 3063.2 kPa, Liquid | 1100.24
300 K, 3486.7 kPa, Liquid | 1102.83
300 K, 3535.6 kPa, Liquid | 1102.72
300 K, 4015.2 kPa, Liquid | 1105.57
300 K, 4063.9 kPa, Liquid | 1105.45
300 K, 4499.8 kPa, Liquid | 1108.05
300 K, 4569.3 kPa, Liquid | 1107.99
300 K, 5014.6 kPa, Liquid | 1110.58
300 K, 5140.6 kPa, Liquid | 1110.81
300 K, 5517 kPa, Liquid | 1113.05
300 K, 5669.7 kPa, Liquid | 1113.35
300 K, 6023 kPa, Liquid | 1115.44
300 K, 6155.2 kPa, Liquid | 1115.66
300 K, 6499 kPa, Liquid | 1117.65
300 K, 6683.2 kPa, Liquid | 1118.07
300 K, 6960.3 kPa, Liquid | 1119.71
300 K, 7091.7 kPa, Liquid | 1119.94
310 K, 38.3 kPa, Gas | 1.49
310 K, 56.5 kPa, Gas | 2.22
310 K, 83.1 kPa, Gas | 3.29
310 K, 121.9 kPa, Gas | 4.87
310 K, 178.2 kPa, Gas | 7.22
310 K, 258.9 kPa, Gas | 10.69
310 K, 372.5 kPa, Gas | 15.8
310 K, 528.4 kPa, Gas | 23.4
310 K, 742.6 kPa, Gas | 35.17
310 K, 813.1 kPa, Liquid | 1051.26
310 K, 836.7 kPa, Liquid | 1051.44
310 K, 861.7 kPa, Liquid | 1051.63
310 K, 1006.3 kPa, Liquid | 1053.19
310 K, 1033.6 kPa, Liquid | 1052.9
310 K, 1512.4 kPa, Liquid | 1056.88
310 K, 1533.9 kPa, Liquid | 1056.54
310 K, 2000.5 kPa, Liquid | 1060.31
310 K, 2046.2 kPa, Liquid | 1060.13
310 K, 2498.6 kPa, Liquid | 1063.7
310 K, 2539.9 kPa, Liquid | 1063.48
310 K, 3027.3 kPa, Liquid | 1067.18
310 K, 3099.5 kPa, Liquid | 1067.15
310 K, 3517 kPa, Liquid | 1070.31
310 K, 3564.5 kPa, Liquid | 1070.1
310 K, 4017.7 kPa, Liquid | 1073.4
310 K, 4131.5 kPa, Liquid | 1073.59
310 K, 4531.7 kPa, Liquid | 1076.5
310 K, 5049.8 kPa, Liquid | 1079.54
310 K, 5149.7 kPa, Liquid | 1079.59
310 K, 5542 kPa, Liquid | 1082.34
310 K, 5630.8 kPa, Liquid | 1082.31
310 K, 6021.1 kPa, Liquid | 1085.02
310 K, 6210.4 kPa, Liquid | 1085.5
310 K, 6538.6 kPa, Liquid | 1087.83
310 K, 6998 kPa, Liquid | 1090.22
310 K, 7191.1 kPa, Liquid | 1090.69
320 K, 46.4 kPa, Gas | 1.77
320 K, 68.4 kPa, Gas | 2.64
320 K, 100.6 kPa, Gas | 3.89
320 K, 147.5 kPa, Gas | 5.74
320 K, 215.4 kPa, Gas | 8.49
320 K, 312.9 kPa, Gas | 12.57

Liquid
Settings | mass density | vapor or sublimation pressure
290 K | 1119.31 kg/m3 | –
300 K | 1086.15 kg/m3 and 1086.47 kg/m3 and 1086.56 kg/m3 | 607.7 kPa and 607.3 kPa
305 K | – | 698.7 kPa
310 K | 1054.67 kg/m3 [middle of 4 runs] | 800.9 kPa and 800.7 kPa and 801.7 kPa
315 K | – | 914.3 kPa

Gas, Burnett expansion method
Settings | mass density [kg/m3]
300 K, 124.2 kPa | 5.136
300 K, 170.5 kPa | 7.128
300 K, 183.4 kPa | 7.703
300 K, 251.4 kPa | 10.75
300 K, 268.7 kPa | 11.56
300 K, 364.7 kPa | 16.13
300 K, 388.1 kPa | 17.29
300 K, 519.4 kPa | 24.16
300 K, 550.3 kPa | 25.89
310 K, 128.7 kPa | 5.137
310 K, 177.1 kPa | 7.139
310 K, 190.3 kPa | 7.705
310 K, 261 kPa | 10.74
310 K, 279.4 kPa | 11.56
310 K, 380.4 kPa | 16.14
310 K, 405 kPa | 17.3
310 K, 545.9 kPa | 24.27
310 K, 578.6 kPa | 25.97
310 K, 759.9 kPa | 36.24
320 K, 133.1 kPa | 5.135
320 K, 183.4 kPa | 7.139
320 K, 197.1 kPa | 7.701
320 K, 270.9 kPa | 10.74
320 K, 289.9 kPa | 11.55
320 K, 395.7 kPa | 16.14
